Source: patent publication EP2217930B1, “MALDI MS-BASED HIGH-THROUGHPUT SCREENING METHOD FOR SUBSTANCES INHIBITING AGGREGATION OF ALZHEIMER'S AMYLOID BETA PEPTIDES” (Tallinn University of Technology, priority 2007, dated 2009)

target: T1, Aβ42 (Homo sapiens, UniProt P05067); experiment: automatic MALDI-TOF MS high-throughput screening assay for inhibitors of Aβ42 aggregation (detection of monomeric Aβ42, insulin B chain as internal standard); format: biochemical; details: 35 selected substances tested; 5 µM Aβ42 in 20mM HEPES 0.1 M NaCl pH 7.5; monomeric Aβ42 detected by MALDI-TOF MS
T1 construct: Both 40 and 42 amino acid amyloid beta peptides were purchased from rPeptide; purchased rPeptide (Bogart, USA)
T1 sequence (P05067 672-713 limits assumed): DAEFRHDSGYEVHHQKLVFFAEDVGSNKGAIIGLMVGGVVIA
Protocol: For every aggregation experiment Aβ42 solutions were prepared following the same procedure. The lyophilized peptide was taken out from the -80°C fridge, and incubated at room temperature until thawing. Cold 0.02% ammonium hydroxide was added to the peptide to get a final concentration of 10 µM. The solution was mixed on the vortex for a minute and put on ice. Before the beginning of the experiment the solution was mixed again for a shorter time. To start the experiment, the peptide stock solution was diluted in a ratio of 1:1 into the buffer, which contained various concentrations of a tested compound. All probes contained 5 µM Aβ42 in 20mM HEPES 0.1 M NaCl pH 7.5. Aβ42 solutions were always prepared shortly before the beginning of experiment.
First, 5 µM B chain solution in 60% AcN 0.3% TFA was prepared and added to the α-cyano matrix solution to generate a 10 mg/ml α-cyano, 0.25 µM B chain solution in 60% AcN 0.3% TFA. The solution was mixed on a vortex for a minute and then incubated at room temperature for 10 minutes. Solution was mixed again, centrifuged for 3 min at 6000 rpm and the supernatant was transferred into a clean vial. Shortly before the beginning of aggregation experiments, Aβ42 solutions were prepared and transferred to sequential wells of a 96-well plate.
Spots on MALDI plates were generated automatically by an Ettan Spotter (Amersham Biosciences, Sweden). Different spotting procedures were tested and best results were obtained using the following method: 0.5 µl sample + 1.5 µl matrix containing the internal calibrant - mixing 3 times with a volume of 1 µl.
The spots were air-dried and spectra were collected automatically with Voyager DE™ STR BioSpectrometry™Workstation (Applied Biosystems, USA) mass spectrometer. […] The spectra were processed with Data Explorer™ Software (Version 4; Applied Biosystems, USA).

Substance | inhibition of aggregation of Aβ42
Zn(CH3COO)2 [zinc] | inhibited aggregation of Aβ42
copper | inhibited aggregation of Aβ42
hemin | inhibits aggregation of Aβ42
